In patent US20110166194A1, “Asenapine Prodrugs” (Alkermes, Inc., priority 2010, published 2011):

Columns and labels:
[1] = Pharmacokinetic evaluation of asenapine and asenapine prodrugs in rats; format: in vivo, Sprague-Dawley rats; conditions: rat plasma, 10 mg/rat IM, suspension in 1% HPMC in PBS saline with 0.2% Tween pH 6.0; FIG. 3
Procedure: Animals: 18 Male Sprague-Dawley rats (Charles River Laboratories, Wilmington, Mass.) were used in the study. Three groups of 6 rats were used and are referred to in this study as Groups A, B and C. Rats were approximately 350-375 g at time of arrival. Rats are housed 2 per cage with ad libitum chow and water. Environmental conditions in the housing room: 64-67° F., 30% to 70% relative humidity, and 12:12-h light:dark cycle. All experiments were approved by the institutional animal care and use committee.
Test Compounds: The following formulations of Asenapine parent drug and prodrug compounds of the invention were used in the study.
Pharmacokinetics study: Rats were dosed IM by means of a 23 gauge, 1 in. needle with 1 cc syringe 0.3 mL suspension was withdrawn from the vial containing the test compound. The rat was injected in the muscles of the hind limb after anesthesia with isoflourane. Blood samples were collected via a lateral tail vein after brief anesthesia with Isoflurane. A 27½G needle and 1 cc syringe without an anticoagulant was used for the blood collection. […]
Data Analysis: Drug concentrations in plasma samples were analyzed by liquid chromatography—mass spectroscopy using appropriate parameters for each compound. Half-life, volume of distribution, clearance, maximal concentration, and AUC were calculated by using WinNonlin version 5.2 software (Pharsight, St. Louis, Mo.).

[2] = Solution stability of asenapine prodrugs as a function of pH; format: physicochemical; conditions: 0.01M buffers pH 2.11-9.01, 25° C., HPLC after 1, 4, 10 and 24 hours; FIG. 1 and 2
Procedure: The asenapine derived prodrugs were prepared at approximately 300 ug/mL in buffers (see table of buffers below). The initial ratio of prodrug/parent was measured using a freshly prepared solution in unbuffered water. Acetonitrile was titrated into all samples as needed to ensure the complete dissolution of the compounds. The amount of acetonitrile varied depending on the solubility of each compound (see Note 1). 1.5 mL of each stability sample was transferred into a HPLC vial and the vials were maintained at 25° C. in the temperature controlled sample compartment of the HPLC. Each sample was assayed by HPLC after 1, 4, 10, and 24 hours for prodrug and asenapine content (see Note 2).
The fraction of prodrug remaining at each time point was calculated as;
Fraction Prodrug=(HPLC Area of Prodrug)/(HPLC area of prodrug+asenapine) (see Note 3).
The loss of prodrug was then fit to the equation for first order decay:
Fraction Prodrug=(Initial Fraction prodrug)*e^−kt
where t=time (in hours) and k is the rate constant for decay. Finally, the half-lives are were calculated as
Note 1: The acetonitrile concentration is not expected to have a large impact on the degradation rate since the rate follows first order decay with respect to compound (ie, the rate constant is independent of the concentration). […]

[3] = tested on: muscarinic receptors; conditions: background; cited from earlier work
[4] = tested on: serotonergic (5-HT2A, 5-HT2C, 5-HT6, 5-HTS), noradrenergic (α2A, α2B, α2C) and dopaminergic (D3, D4) receptors; conditions: background; cited from earlier work

With CCC(C)(C)C(=O)OC[N+]1(C)CC2c3ccccc3Oc3ccc(Cl)cc3C2C1.[I-] (stereo not shown) [ASN-83, Asenapine dimethyl butyrate prodrug] the Cmax [1] was “lower than the Cmax of the parent Asenapine formulation as well as lower than that of the Asenapine palmitate prodrug (ASN-76)”.

With CC(C)(C)C(=O)OC[N+]1(C)CC2c3ccccc3Oc3ccc(Cl)cc3C2C1.[Cl-] (stereo not shown) [asenapine pivalate] the “Solution stability (loss of prodrug to asenapine)” value [2] was “more stable than the asenapine octanoate”.

For CN1CC2c3ccccc3Oc3ccc(Cl)cc3C2C1 (stereo not shown) [Asenapine], the Affinity [3] is given as “minimal affinity” and the “Affinity relative to D2 receptors” value [4] is given as “higher affinity”.
